For data set [1], the system named is C8161 human melanoma cells. The data set can be described thus: In vitro invasion assay (MICS), laminin/collagen IV/gelatin matrix-coated filter. The format is cell-based. The note with it: 3, 20 and 50 μg/mL; for Percent Inhibition of invasive potential: 48 hr. The protocol:
The in vitro invasive potentials of the control (DMSO only) and chemically-modified tetracycline treated cells were measured using a modified Boyden chamber as previously described (Membrane Invasion Culture System, MICS). An intervening barrier consisting of a polycarbonate filter containing 10 μm pores (Osmonics, Livermore, Calif.) coated with a defined matrix of human laminin/collagen IV/gelatin (Sigma, St. Louis, Mo.) was used for these studies. […] Doxycycline or individual CMTs were then added to different wells of the chamber at 3, 20 or 50 μg/mL 2 hr post-seeding and daily during the assay. After 48 hr, the cells were removed from the lower wells and the number of invasive cells was determined and compared to the original number of cells seeded into the upper wells. Where appropriate, data were corrected for proliferation during the period of the in vitro assay.

Data set [2] relates to C8161 cells. Put plainly: C8161 cell proliferation (doubling time). In kind it is cell-based, human. The settings on record: 50 μg/mL; for Doubling Time: on plastic, DMSO 22 hr. The protocol: Cell Culture and Maintenance: C8161 cells, a human melanoma cell line, were maintained in Dulbecco's modified Eagle's medium (DMEM; […] These cells were routinely screened for Mycoplasma contamination using the GenProbe Rapid Detection System (Fisher Scientific; Chicago, Ill.). Chemically Modified Tetracyclines: Fresh stock solutions of the chemically modified tetracycline compounds (2 mg/mL) were prepared for each experiment by hydrating in 2% dimethyl sulfoxide (DMSO)/water pH 10, then adjusting to pH 7.4 using 1.0 M HCl. […] Sigma Chem. Co.; control) or 50 μg/mL of doxycycline or the other CMTs (three wells on each plate per compound). […] The doubling time for C8161 cells in the presence of each compound was then determined and compared to the DMSO treated cells (control).

The next data set deals with LNCAP cells. The data set can be described thus: Alamar Blue viability assay, LNCAP. In kind it is cell-based, human. The source says: Several cancer cell lines and normal cells were examined in vitro to determine whether tetracycline compounds produce cytotoxic (cell killing) effects. A conventional assay for viability of cultured cells based on redox activity in the cells was employed (Pagé et al. 1993). The assay uses a redox dye Alamar Blue, which is a fluorogenic indicator dye that is converted to a fluorescent red product only when cells are carrying out electron transport activity, a widely accepted criterion of viability.
Cultured cells from three prostate tumor cell lines, LNCAP, DU-145, and PC-3, and normal prostate stromal cells obtained by biopsy of a normal person, were allowed to grow to confluence in multiwell microplates to minimize differences in proliferative activity among the cell types at the time of exposure to the test compound. CMT-3 was added to the wells at concentrations of 10 μM and 20 μM (50 μM also in the case of DU-145). At the start of the experiment, and again at 1, 2, and 3 days, selected wells were incubated with the indicator dye for 3 hr, and the fluorescence was measured on a Cytofluor 2300 fluorescent microplate reader.

A further data set concerns MAT LyLu cells. Put plainly: Soluble nucleosome ELISA (programmed cell death), MAT LyLu. The format is cell-based, rat. The protocol:
An investigation of the cytotoxicity of chemically modified tetracycline compounds for cancer cells was undertaken to determine involvement of programmed cell death (apoptosis) (see Duke et al. 1986). MAT LyLu cells were incubated with various concentration of CMT-3 and doxycycline. Conditioned media were assayed for soluble nucleosomes, resulting from internucleosomal DNA strand breaks, using the Cell Death Detection ELISA Plus kit from Boehringer Mannheim GmbH (Catalog No. 1774425) according to the manufacturer's instructions. In the dosage-dependence trials, cells were incubated with the tetracycline compounds for 48 hr, and then media were collected. In the time trials, the cells were exposed to the tetracycline compounds for specific periods of time from 0 to 48 hr, and if appropriate were maintained in fresh media until 48 hr from the start of the experiment at which time media were collected.

For data set [3], the system named is C8161 cells. The data set can be described thus: In vivo metastasis assay, C8161 cells i.v. in SCID mice. The note with it: for Number of Lung Metastases/Mouse: Average ± SEM, control 231 ± 49. The protocol:
Immunosuppressed mice (athymic nude/nude SCID females from Harlan Sprague Dawley) were housed in autoclaved cages with microisolator tops, and all manipulations of the animals were done in a laminar flow hood after wiping down both the hood, gloves and cages with ABQ sterilant. The mice were fed sterile Pico Lab Chow (Purina) and autoclaved St. Louis tap water. […] The compounds and control (sterile water plus 2% carboxymethyl cellulose) were kept stored at −80° C. wrapped in aluminum foil to prevent any light induced changes, and each day's supply was thawed just prior to use. Four compounds were tested for their effects on the metastatic potential of C8161 cells injected intravenously via the tail vein: […] The concentration of the compounds in the vials used to give the 100 mg/kg doses were 2.5 times that in the 40 mg/kg dose so that approximately the same volume was used in both cases, approximately 0.5 mL/animal. The experiments started with nine animals per group at day −4. On day zero, 2×10^5 C8161 cells in cold Hank's Balanced Salt Solution (HBSS) were injected intravenously via tail vein inoculation. The experiment was continued for an additional 24 days, at which time the animals were sacrificed and their lungs removed and fixed in a solution of Bouins/formaldehyde (5 parts:1 part). Tumors were quantitated on the entire surface of the lungs by rotating the lungs and counting the tumors on each lobe using a 6× magnifying glass. Statistical analysis was performed using the statistical package of Microsoft's Excel spreadsheet software.

Another data set has as its system gelatinase A (MMP-2). The data set can be described thus: Gelatin zymography of conditioned media of TSU PR1 and MAT LyLu cells, MMP-2. The format is cell-based. The note with it: 48 hours, serum-free medium. The protocol: Next we examined whether CMT-3 and doxycycline differentially affect the production of two major classes of gelatinases: gelatinase A (MMP-2) and gelatinase B (MMP-9). Confluent cultures of TSU PR1 and MAT LyLu cells were incubated with various concentrations of doxycycline and CMT-3 for 48 hours in serum-free medium. The conditioned media were then analyzed for MMPs by zymography as described below.
Conditioned media were collected from the cultures that had been treated with doxycycline or CMT-3 for 2 days. Media were then incubated with SDS-gel electrophoresis sample buffer for 30 min at room temperature, and then analyzed by gel electrophoresis on SDS-polyacrylamide gel (8%) containing gelatin (1 mg/mL). Following electrophoresis, the gels were washed twice with 0.25% TRITON® X100 for 30 min each, and incubated for 18 hr at 37° C. in an MMP digestion buffer comprising 20 mM Tris-HCl, pH 7.4, containing 30 mM NaCl, 1 mM PMSF, 10 mM CaCl2, 2 μM ZnSO4, 0.005% Brij35, and 0.02 NaN3 (Lokeshwar 1993a). After incubation, the gels were briefly rinsed in distilled water and stained with 0.25% Coomassie brilliant blue R250 prepared in 40% isopropanol solution for 1 hr. Gels were destained with 7% acetic acid. the locations of MMPs in the gels were visible as clear areas on a blue background, indicative of digested gelatin.

Structures are written as SMILES. Some results are limits rather than exact numbers.

`C[C@H]1c2cccc(O)c2C(=O)C2=C(O)[C@]3(O)C(=O)C(C(N)=O)=C(O)[C@@H](N(C)C)[C@@H]3[C@@H](O)[C@@H]21` [Doxycycline, 6α-deoxy-5-hydroxy-tetracycline, reference compound]: the “Percent Inhibition of invasive potential” value in data set [1] is given as 12-79%. For the same compound, the “Doubling Time” value in the data set with C8161 cells [2] was 22 h.

In the case of `NC(=O)C1=C(O)CC2CC3Cc4cccc(O)c4C(=O)C3=C(O)C2(O)C1=O` (stereo not drawn) [CMT-3, 6-demethyl-6-deoxy-4-de(dimethylamino)tetracycline], in the data set with LNCAP cells (10 μM, 24 hr), the cytotoxicity entry was “nearly complete”. In addition, the “time to complete cytotoxicity” value with LNCAP cells (20 μM) was at most 24 h. In addition, the “programmed cell death response after brief exposure” value with MAT LyLu cells (4 hr at 5 μg/mL or 10 μg/mL) is reported as “sufficient to elicit a putative programmed cell death response”. Moreover, in the data set with MAT LyLu cells (dosage-dependence, 48 hr), the “soluble nucleosomes / programmed cell death induction” value was “dose-dependent increase in soluble nucleosomes”. For the same compound, the “Number of Lung Metastases/Mouse” value with C8161 cells [3] (40 mg/kg daily intragastric) came out at 111 ± 105; in the data set with C8161 cells [3] (100 mg/kg daily intragastric), 176 ± 82. Further, the “effect on number of lung metastases (significance)” value with C8161 cells [3] (40 mg/kg daily, p<0.05) is “significantly reduced the number of lung metastases”; in the data set with C8161 cells [3] (100 mg/kg), “did not significantly reduce the number of lung metastases”. Moreover, the “Type of Inhibition” value in data set [1] is on record as “dose dependent”. For the same compound, in data set [1], the “Percent Inhibition of invasive potential” value is reported as 35-74%. In addition, the “Doubling Time” value with C8161 cells [2] was found to be 28 h. Also, the “increase of doubling time” value with C8161 cells [2] (versus DMSO) is reported as around 27%. In the data set with gelatinase A (MMP-2), the “MMP-2 levels in conditioned media (zymography)” value was “decreased MMP-2 and MMP-9 levels at a lower concentration than did doxycycline”.

(Values after patent publication US6429204B1, “Method of inhibiting cancer growth” (University of Miami, priority 1997, dated 2002).)
